Patent US10577358B2, “Strigolactone formulations and uses thereof” (SOUND AGRICULTURE COMPANY, priority 2013, dated 2020)

Legend:
Seeds of Striga asiatica = assay: Triggering Striga seed germination; format: in vivo; details: for bioactivity in Striga germination assay: FIG. 1
Description: (B) Bioactivity of synthetic SL. Seeds of Striga asiatica were exposed to SL (right) or a mock treatment (left). […] (C) Synthetic biological pathway for the production of SL in yeast, consisting of enzymes of plant and microbial origin. We tested the ability of AB01 to trigger the germination of Striga seeds. Seeds of Striga asiatica were conditioned by incubation in the dark at 30 degrees for 7 days, and dilutions of the AB01 material in water were applied. We observed that concentrations of 1 nanogram per liter and greater were able to trigger germination of approximately 30% of the seeds, which is similar to published efficiencies and activity for plant-derived strigolactone (FIG. 1A-B).

MAX1 A. thaliana mutants = assay: Complementation of Arabidopsis mutant deficient in strigolactone biosynthesis; format: in vivo, Arabidopsis thaliana; details: 1 uM as an irrigation supplement vs mock treatment
Description: To further validate the bioactivity of AB01 we tested whether the compound could complement mutants of the model plant Arabidopsis thaliana that are deficient in strigolactone biosynthesis. […] We grew MAX1 A. thaliana under standard conditions and added 1 uM AB01 as an irrigation supplement, or a mock treatment. […] Thus, the synthetic AB01 is sufficiently similar to strigolactone to both to trigger Striga germination as well as substitute for the natural compound in a model plant.

Seeds of O. cumana = assay: Germination triggering of parasitic weed seeds; format: in vivo; details: AB01 compared with 5-deoxystrigol; 48 hours post-treatment, triplicate
Description: Seeds of O. cumana were primed by incubation on glass fiber filters in darkness at room temperature for 3 days. Specified concentrations of AB01 or 5-dS were applied and seeds were monitored at 48 hours post-treatment. Germination was evident by appearance of haustoria. Experiments were performed in triplicate.

Alfalfa seedlings [1] = assay: Drought tolerance in alfalfa seedlings; format: in vivo; details: 1 mg/mL; irrigation stopped; approximately 7 days post-treatment
Description: Alfalfa was grown from seeds for 14 days. Seedlings were treated with 1 mg/mL AB01 or mock treated. Irrigation was stopped after treatment and seedlings were monitored for symptoms of water limitation stress.

[2] = system: corn, Dekalb hybrid 68-05; assay: Corn field trial, Hays County, Tex., not irrigated; format: in vivo
Description: Field trial was performed from April to July 2014 in Hays County, Tex. Dekalb hybrid 68-05 was planted at a density of 25,000 plants per acre (30″ rows with 8″ spacing). The field was top-dressed with 80 lbs/ac nitrogen. The field was not irrigated. AB01 treated plots were sprayed with a 2 gram per acre dose at the tasseling (VT) stage. Spraying was accomplished by resuspending solid AB01 in 0.5 mL of acetone, and diluting in water for a spray volume of 1 gallon per 500 square feet. Experiments were performed in triplicate The fraction of fertilized ears was measured by visual inspection of the ear silk at the R2-R3 stage. Unfertilized silks that appear yellow/green, while fertilized silks appear reddish brown. Completely unfertilized ears have silks that are completely yellow/green, fertilized ears appear brown, while ears with an incomplete degree of fertilized silks have a mixed population of silks. […] Ears were visually inspected at harvest to monitor kernel set (the number of fully formed kernels in the mature ear). […] Ears volume was measured in the field at the R3 stage to calculate ear volume. The length and circumference of each ear was measure, and volume was calculated by treating the ear as a cylinder. Approximately 100 ears from each plot were measured. […] After harvest, ears were shelled and kernels counted and weighed to quantitate the ‘thousand kernel weight’ (TKW), or average mass of kernels in the trial. AB01 treated plots yielded kernels averaging 30% higher mass than control plots. Ears from control and treated plots were harvested, shelled, and moisture tested to quantitate dry mass. Control plots averaged 120 bushels per acre, while AB01 treated plots averaged 143 bushels per acre, a 19% increase. Grain yield is calculated at 15% moisture, a standard measure of harvest output.

Alfalfa seedlings [3] = assay: Salinity tolerance in alfalfa seedlings; format: in vivo; details: 1 mg/mL; irrigated every 48 hours with 100 mL water containing 35 g/L NaCl; after 5 days
Description: Alfalfa was grown from seeds for 14 days. Seedlings were treated with 1 mg/mL AB01 or mock treated. After treatment, plants were irrigated with 100 mL water containing 35 g/L dissolved salt (NaCl). Irrigation was performed every 48 hours and plants monitored for symptoms of salinity stress.

Tomato seedlings = assay: Salinity tolerance in tomato seedlings; format: in vivo; details: 10 mg/mL; 250 mL water with 29.2 g/L NaCl 24 hours after treatment; 6 hours after salt irrigation
Description: Tomato seedlings were treated with 10 mg/mL AB01 or mock treated. 24 hours after treatment, they were irrigated with 250 mL water containing 29.2 g/L salt (NaCl).

Wheat = assay: Drought tolerance in greenhouse wheat; format: in vivo; details: 1 mg in 100 mL water; irrigation stopped; 7 days post treatment
Description: Wheat was grown in greenhouse conditions from seed for 6 weeks with adequate irrigation. Plants were treated with 1 mg of AB01 resuspended in acetone and diluted in 100 mL water, or mock treated as a control. Irrigation was stopped and plants monitored for symptoms of drought stress.

Striga = assay: Field trial Siaya County, Kenya: reduction of Striga; format: in vivo; details: 1 gram per acre sprayed 1 week prior to planting
Description: (§1) Field trial was performed from August 2013 to January 2014 in Siaya County, Kenya. AB01 treated plots were sprayed with a 1 gram per acre dose 1 week prior to planting. Treatment was accomplished by resuspending solid AB01 in 1 mL of acetone, and diluting in 4000 L of water. 3 replicate treated and untreated plots (100 m2 each) were performed. […] (C) The biomass of Striga from each plot was collected and measured after harvest.

[4] = system: grain crop in Striga infested plots; assay: Field trial Siaya County, Kenya: grain yield; format: in vivo; details: 1 gram per acre sprayed 1 week prior to planting
Description: We have field trials underway outside of Kisumu, Kenya to test the efficacy of this treatment on maize yields in Striga infested fields.
as §1

[5] = system: Dekalb 67-86 RR corn seedlings; assay: Acute water stress in corn seedlings (leaf rolling score); format: in vivo; details: 40 mL of 0.1 mM or 1.0 mM; 6th day without irrigation; greenhouse
Description: Corn seedlings were scored as unstressed, moderately water stressed and severely water stressed as measured by visual inspection of leaf rolling, a response of corn to water stress. Dekalb 67-86 RR corn seeds were planted and then irrigated through 7 days after emergence in a greenhouse setting. Seedlings were then treated with 40 mL of water, 0.1 mM AB01 or 1.0 mM AB01 and irrigation ceased. On the 6th day without irrigation, seedlings were scored for water stress. Seedlings with open leaves were scored as unstressed; seedlings with partial leaf rolling were scored as moderately stressed; seedlings with completely rolled leaves were scored as severely stressed.

Striga hermonthica seeds = details: at 10^-8 M concentrations; cited from earlier work

## CC1=CC(O/C=C2\C(=O)O[C@]3(C)CCC4C(C)(C)CCC[C@]4(C)[C@@H]23)OC1=O (stereo partly shown) [AB01]
Seeds of Striga asiatica
  bioactivity in Striga germination assay: graded dose-response behavior
Seeds of Striga asiatica; listed as Synthetic SL
  bioactivity in Striga germination assay: potent bioactivity
Seeds of Striga asiatica; listed as synthetic SL
  bioactivity in Striga germination assay: displayed bioactivity
Seeds of Striga asiatica; listed as synthetically produced SL
  bioactivity in Striga germination assay: effective at germinating seeds of Striga asiatica
Seeds of Striga asiatica; Striga asiatica seeds conditioned 7 days, dilutions in water
  concentrations able to trigger germination: ≥ 1 nanogram per liter
Seeds of Striga asiatica; Striga asiatica seeds conditioned in the dark at 30 degrees for 7 days, dilutions in water, 1 nanogram per liter and greater
  seeds triggered to germinate: approximately 30%
MAX1 A. thaliana mutants
  effect on phenotype of strigolactone-deficient mutant: visible impact on the phenotype of the mutant
Seeds of O. cumana
  germination triggering efficiency (appearance of haustoria): Significant differences in germination triggering efficiency
Alfalfa seedlings [1]
  appearance of seedlings under water limitation: appeared robust
[2]; 2 gram per acre spray at VT
  increase of harvest yield over control plots: 19%
[2]; 2 gram per acre spray at VT, R3 stage, approximately 100 ears per plot, vs mock treated
  ear volume: significantly higher volumes
[2]; 2 gram per acre spray at VT, vs mock treated
  kernel set at harvest: more complete kernel set and few signs of kernel abortion
[2]; 2 gram per acre spray at tasseling (VT), R2-R3 stage, vs mock treated control
  fraction of fertilized ears (visual inspection of ear silk): decreased the fraction of unfertilized ears while increasing the fraction of fertilized ears
Alfalfa seedlings [3]
  vigor under salinity stress: significantly higher vigor
Tomato seedlings
  symptoms of salinity shock (wilting): appeared unstressed
Wheat
  symptoms of drought stress (wilting): appeared vigorous
Striga
  count of emergent Striga per plot: few parasites
Striga; 3 replicate plots of 100 m2
  Striga emergence and Striga-related stress during season: few signs of Striga-related stress and parasite emergence
[4]
  increase of grain yield compared to untreated plots: 25%
[5]
  fraction of unstressed / severely water stressed seedlings: decreased the fraction of severely stressed seedlings while increasing the fraction of unstressed seedlings in a dose-dependent manner

## CC1=CC(OC=C2C(=O)OC3C4=C(CC23)C(O)CCC4(C)C)OC1=O (stereo not drawn) [ent-strigol]
Striga hermonthica seeds
  activity in germination studies of Striga hermonthica seeds: 22%

## CC1=C[C@H](O/C=C2/C(=O)O[C@@H]3C4=C(CCCC4(C)C)C[C@H]23)OC1=O [Formula 5-dS, 5-deoxystrigol, reference compound]
Seeds of O. cumana
  germination triggering efficiency (appearance of haustoria): Significant differences in germination triggering efficiency
